# Laboratory results taken from publication PMC4763008, “Selective Inhibition of Bakuchicin Isolated from Psoralea corylifolia on CYP1A in Human Liver Microsomes” (Evidence-based Complementary and Alternative Medicine : eCAM, 2016).
# “Also recorded” adds a separate entry of the source. Where two headings read alike, the source gives them in different places.
# Experiments:
# [1] = molecular target: T1, CYP2C9 (Homo sapiens, UniProt P11712); assay: CYP inhibition, cocktail of probe substrates in pooled human liver microsomes: diclofenac 4'-hydroxylation; format: in vitro ADME; settings: pooled HLMs, substrate 10 μM
# T1 construct: each reaction was performed with 0.5 mg/mL pooled human liver microsomes; tissue Corning Gentest BD UltraPool HLM 150; host or cells: pooled human liver microsomes
# T1 sequence (P11712 whole entry): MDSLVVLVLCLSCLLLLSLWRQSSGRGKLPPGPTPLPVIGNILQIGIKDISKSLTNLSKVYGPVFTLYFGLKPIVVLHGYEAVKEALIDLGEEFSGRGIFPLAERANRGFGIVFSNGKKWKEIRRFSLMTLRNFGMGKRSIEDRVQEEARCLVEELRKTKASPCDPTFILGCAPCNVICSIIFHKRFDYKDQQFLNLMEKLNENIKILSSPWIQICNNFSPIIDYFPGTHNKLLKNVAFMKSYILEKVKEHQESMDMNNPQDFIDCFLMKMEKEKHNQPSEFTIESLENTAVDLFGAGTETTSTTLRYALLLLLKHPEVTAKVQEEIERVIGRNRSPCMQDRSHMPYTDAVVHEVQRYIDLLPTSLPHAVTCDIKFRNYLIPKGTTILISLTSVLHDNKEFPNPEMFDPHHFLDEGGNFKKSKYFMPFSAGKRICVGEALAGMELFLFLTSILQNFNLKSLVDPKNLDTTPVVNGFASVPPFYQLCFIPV
# [2] = molecular target: T2, human recombinant cDNA-expressed CYP1A1 (Homo sapiens, UniProt P04798); assay: Inhibition of phenacetin O-deethylation by human recombinant cDNA-expressed CYP1A1; format: biochemical
# T2 construct: purchased Corning Gentest (Woburn, MA)
# T2 sequence (P04798 1-512): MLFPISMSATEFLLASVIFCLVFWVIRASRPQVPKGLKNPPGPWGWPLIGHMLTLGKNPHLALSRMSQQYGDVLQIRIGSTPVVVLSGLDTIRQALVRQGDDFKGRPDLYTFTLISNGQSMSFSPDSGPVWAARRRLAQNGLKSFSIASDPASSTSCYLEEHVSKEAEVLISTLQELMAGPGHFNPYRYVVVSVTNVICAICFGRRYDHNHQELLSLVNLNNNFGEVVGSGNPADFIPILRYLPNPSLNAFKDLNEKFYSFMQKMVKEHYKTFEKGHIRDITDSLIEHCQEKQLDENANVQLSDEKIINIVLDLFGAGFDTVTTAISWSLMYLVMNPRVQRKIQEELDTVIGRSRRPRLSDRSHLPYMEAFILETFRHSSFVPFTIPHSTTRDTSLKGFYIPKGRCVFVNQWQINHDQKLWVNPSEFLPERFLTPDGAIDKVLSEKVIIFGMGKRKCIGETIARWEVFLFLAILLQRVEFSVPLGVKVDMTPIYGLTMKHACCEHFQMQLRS
# Description: (§1) To confirm the selective inhibition of CYP1A by bakuchicin, 10 pmol of human recombinant cDNA-expressed CYP1A1 and CYP1A2 was incubated with bakuchicin at 0.1–50 μM and NGS for 60 min at 37°C after the addition of 80 μM phenacetin as a selective CYP1A substrate. Those were terminated by adding 100 μL acetonitrile containing 0.1% formic acid and 2.5 μL of internal standard solution (5 μM reserpine) in methanol. After mixing and centrifuging at 13,000 ×g for 12 min, a 5 μL aliquot was injected onto a C18 column for LC-MS/MS analysis. CYP1A1 and CYP1A2 activities were determined by phenacetin O-deethylation. The inhibition patterns of bakuchicin on CYP1A in human recombinant cDNA-expressed CYP1A1 and CYP1A2 were confirmed by Michaelis-Menten and secondary plot.
# (§2) All measurements were performed using LC-MS/MS in multiple reaction monitoring mode. LC-MS/MS was performed using an Accela™ LC system coupled to a TSQ Vantage triple quadrupole mass spectrometer (Thermo Fisher Scientific Inc., USA) equipped with a HESI-II Spray source. Electrospray ionization was performed in positive mode at a spray voltage of 3,500 V (except for the detection of 6-hydroxy chlorzoxazone). Nitrogen was used as a sheath and auxiliary gas at optimum values of 45 and 20 (arbitrary units), respectively. Vaporizer and capillary temperatures were 150 and 300°C, respectively. For LC analysis an Inertsil® ODS-2 (3 μm, 2.1 × 150 mm) column (GL Sciences Inc., Torrance, CA) was used. The mobile phase consisted of acetonitrile (mobile phase A) and water (mobile phase B), both of which contained 0.1% formic acid, at a flow rate of 0.22 mL/min at 30°C.
# (§3) All incubations were performed in duplicate, and data are presented as means. IC50 values (the concentration of inhibitor causing a 50% inhibition in enzyme activity) were obtained using percent activity versus log[I] concentration plots. Kinetic parameters were estimated by curve fitting using SigmaPlot (version 12.0, Systat Software, Inc.).
# [3] = molecular target: T3, human recombinant cDNA-expressed CYP1A2 (Homo sapiens, UniProt P05177); assay: Inhibition of phenacetin O-deethylation by human recombinant cDNA-expressed CYP1A2; format: biochemical
# T3 construct: purchased Corning Gentest (Woburn, MA)
# T3 sequence (P05177 1-516): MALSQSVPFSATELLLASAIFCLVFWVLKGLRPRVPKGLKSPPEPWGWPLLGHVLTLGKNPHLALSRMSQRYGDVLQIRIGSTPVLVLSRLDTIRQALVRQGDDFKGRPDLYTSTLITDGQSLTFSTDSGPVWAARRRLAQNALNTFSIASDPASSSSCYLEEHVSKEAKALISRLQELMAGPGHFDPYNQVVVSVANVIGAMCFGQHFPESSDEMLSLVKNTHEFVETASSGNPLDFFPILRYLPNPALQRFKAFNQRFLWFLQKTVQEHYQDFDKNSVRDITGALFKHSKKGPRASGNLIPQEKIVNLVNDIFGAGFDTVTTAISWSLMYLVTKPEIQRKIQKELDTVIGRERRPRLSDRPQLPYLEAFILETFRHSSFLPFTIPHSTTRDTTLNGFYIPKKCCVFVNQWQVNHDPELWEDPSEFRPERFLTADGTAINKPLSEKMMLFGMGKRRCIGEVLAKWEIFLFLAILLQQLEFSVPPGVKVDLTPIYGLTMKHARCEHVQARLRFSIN
# Description: as §1, §2, §3
smiles,measurement,setting,value
O=c1ccc2c(ccc3ccoc32)o1 [Bakuchicin],IC50,"[1]; 15 min preincubation with NADPH, read-out: IC50 With preincubation with NADPH",> 100000 nM
same,IC50,"[1]; 15 min preincubation without NADPH, read-out: IC50 With preincubation Without NADPH",> 100000 nM
same,IC50,"[1]; without preincubation, read-out: IC50 Without preincubation",> 100000 nM
same,IC50,"[2]; recombinant CYP1A1, 80 μM phenacetin, 60 min, read-out: IC50, CYP1A1-catalyzed phenacetin O-deethylase activity",200 nM
same,inhibition mode on CYP1A1,"[2]; recombinant CYP1A1, Lineweaver-Burk plot",competitive inhibitor; also recorded: competitive inhibition
same,Ki,"[2]; recombinant CYP1A1, phenacetin 20, 40, 80 μM, 60 min, read-out: Ki on CYP1A1 (secondary plot)",110 nM
same,IC50,"[3]; recombinant CYP1A2, 80 μM phenacetin, 60 min, read-out: IC50, CYP1A2-catalyzed phenacetin O-deethylase activity",1400 nM
same,inhibition mode on CYP1A2,"[3]; recombinant CYP1A2, Lineweaver-Burk plot",competitive inhibitor; also recorded: competitive inhibition
same,Ki,"[3]; recombinant CYP1A2, phenacetin 20, 40, 80 μM, 60 min, read-out: Ki on CYP1A2 (secondary plot)",320 nM
same,Ki on CYP1A2 relative to Ki on CYP1A1,[3]; recombinant enzymes,3 fold
same,IC50 for CYP1A2 relative to CYP1A1,"[3]; recombinant enzymes, CYP1A2 IC50 higher than CYP1A1 IC50",7 fold
